Test results reported in patent US4963573A, “[[[(3-pyridinyl)methylen]amino]oxy]alkanoic acids and esters” (Janssen Pharmaceutica N.V., priority 1989, dated 1990).
Where two headings read alike, the source gives them in different places.

How the values were obtained:
[1] = tested on: thromboxane A2 biosynthesis; assay: Platelet malondialdehyde (MDA) production in vitro, human platelets in plasma, thrombin stimulated; format: cell-based; settings: human platelet-rich plasma, thrombin 20 N.I.H. U/ml, 10 min pre-incubation at 37° C., 30 min reaction, 50% inhibition vs solvent
Experimental: (§1) MDA production by platelets in plasma, as an indicator of the thromboxane A2 biosynthesis, was evaluated spectrofluometrically. […] After 30 min at 37° C., the reaction was terminated by the addition of 1 ml of 10% (w/v) trichloroacetic acid. After isolation of the supernatant by centrifugation at 320 g for 20 min, the thiobarbituric acid reaction for MDA was performed using acid-hydrolyzed 1,1,3,3-tetramethoxypropane as a standard. The fluorescence of the samples at 553 nm after excitation at 510 nm was measured. The results were calculated as nM MDA/10^8 platelets/30 min and were expressed as a percentage inhibition produced by the compounds relative to the formation of MDA after thrombin stimulation in the solvent. For in vitro experiments, human platelets in plasma were used. Percentage inhibition was calculated versus the solvent value.

[2] = tested on: thromboxane A2 biosynthesis; assay: Platelet malondialdehyde (MDA) production in vivo, male Wistar rats; settings: Rattus norvegicus, read-out: MDA production in vivo ED50-values
Experimental: as §1, with “After isolation of the supernatant by centrifugation at 320 g for 20 min, the thiobarbituric acid reaction for MDA was performed using acid-hydrolyzed 1,1,3,3-tetramethoxypropane as a standard.” left out
For in vivo experiments male Wistar rats were fasted overnight. 2 Hours before blood sampling they were treated with the test compound solution/suspension or the solvent. […] ED50 -values were determined by probit analysis.

[3] = male Wistar rats fasted overnight, treated 2 hours before blood sampling, 50% inhibition relative to MDA values with solvent, probit analysis

SMILES	IC50 [1] [nM]	ED50 [2, 3] [mg/kg]	IC50 ([1]; Homo sapiens, Platelet) [nM]	ED50 ([2]; 2 h) [mg/kg]
O=C(O)CCCCON=C(c1ccccc1)c1cccnc1 [Compound 4, (E+Z)-5-[[[phenyl(3-pyridinyl)methylen]amino]oxy]pentanoic acid]	100	0.059		
CCOC(=O)CCCCO/N=C(\c1ccccc1)c1cccnc1 [Compound 9]	< 100			
O=C(O)CCCCO/N=C(/c1cccnc1)c1cccc(C(F)(F)F)c1 [Compound 63, (E)-5-[[[(3-pyridinyl)[3-(trifluoromethyl)phenyl]methylen]amino]oxy]pentanoic acid]	22	0.012		
O=C(O)CCCCO/N=C(\c1ccccc1)c1cccnc1 [Compound 65]	66	0.045		
O=C(O)CCCCO/N=C(\Cc1ccccc1)c1cccnc1 [Compound 68]	75	1		
COc1ccc(C(=NOCCCCC(=O)O)c2cccnc2)cc1 [Compound 69]	100	0.17		
O=C(O)CCCCON=C(c1cccnc1)c1cccnc1 [Compound 70]	180	1.2		
Cc1ccc(C(=NOCCCCC(=O)O)c2cccnc2)cc1 [Compound 72]	120	0.041		
O=C(O)CCCCON=C(c1ccc(F)cc1)c1cccnc1 [Compound 73]	300	0.2		
O=C(O)CCCCON=C(c1cccnc1)c1cccc2ccccc12 [Compound 74]	23	0.023		
O=C(O)CCCCO/N=C(/c1cccnc1)c1cccs1 [Compound 76]	120	0.068		
O=C(O)CCCCON=C(c1cccnc1)c1ccc2ccccc2c1 [Compound 78]	240	0.044		
COc1ccc(C(=NOCCCCC(=O)O)c2cccnc2)cc1OC [Compound 82]	110	0.056		
O=C(O)CCCCO/N=C(/c1cccnc1)c1ccsc1 [Compound 84]	110	0.17		
CCCC/C(=N\OCCCCC(=O)O)c1cccnc1 [Compound 86]	63	> 0.16		
COC(OC)c1ccccc1/C(=N\OCCCCC(=O)O)c1cccnc1 [Compound 87]	24	> 0.16		
Cc1cccc(C(=NOCCCCC(=O)O)c2cccnc2)c1 [Compound 89]	43	0.02		
Cc1cccc(/C(=N\OCCCCC(=O)O)c2cccnc2)c1 [Compound 90, (E)-5-[[[(3-methylphenyl)(3-pyridinyl)methylen]amino]oxy]pentanoic acid]	24	0.013		
O=C(O)CCCCO/N=C(/c1cccnc1)c1cc(C(F)(F)F)cc(C(F)(F)F)c1 [Compound 92]	33	0.01		
O=C(O)CCCCO/N=C(/c1cccnc1)c1cccc2ccccc12 [Compound 93, (E)-5-[[[(1-naphthalenyl)(3-pyridinyl)methylen]amino]oxy]pentanoic acid]	10	0.014		
O=C(O)CCCCON=C(c1cccnc1)c1ccccc1C(F)(F)F [Compound 94]	32			
O=Cc1cccc(C(=NOCCCCC(=O)O)c2cccnc2)c1 [Compound 116, (E+Z)-5-[[[(3-formylphenyl)(3-pyridinyl)methylen]amino]oxy]pentanoic acid]	100			
O=C([O-])CCCCO/N=C(/c1cccnc1)c1cccc(C(F)(F)F)c1.[Na+] [Compound 121, sodium (E)-5-[[[(3-pyridinyl)[3-(trifluoromethyl)phenyl]methylen]amino]oxy]pentanoate]			14	0.015
O=C([O-])CCCCO/N=C(\c1ccccc1)c1cccnc1.[Na+] [Compound 122, sodium (E)-5-[[[phenyl(3-pyridinyl)methylen]amino]oxy]pentanoate]			81	< 0.16
O=C(O)CCCCO/N=C(/c1cccnc1)c1cccc2ccccc12 [Compound 123, sodium (E)-5-[[[(1-naphthalenyl)(3-pyridinyl)methylen]amino]oxy]pentanoate]			18	
